Laboratory results reported in paper PMC7489219 (Molecular Brain, 2020).
Structures can show the parent of a compound that is named as a salt.

test system: T1, primary mouse cortical neurons; experiment: cells; set-up: Protection from NMDA-induced (30 uM, 10 min) neuronal death; Hoechst nuclear morphology by automated microscopy; conditions: Cortical neurone, 20 h, read-out: % inhibition, inhibition of NMDA-induced cell death (protection score), 30 min pre-treatment
T1 construct: primary cortical neurons, DIV 10
In short: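 On DIV 10, primary mouse cortical neurons were given compound at 10 μM for 30 min at 37 °C, then 30 μM NMDA for 10 min, washed, and kept 20 h with compound. Dead cells were scored by nuclear morphology, and % protection was derived from survival relative to vehicle + NMDA and untreated controls.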

Q: With `CS(=O)(=O)OCCCCOS(C)(=O)=O` [Busulfan (Myleran, Busulfex)] as the compound, how does the inhibition at 10 µM read?
A: 15.7%

Q: For `C=C1C(=O)[C@]23[C@H](O)[C@H]1CC[C@H]2[C@@]12CO[C@]3(O)[C@@H](O)[C@@H]1C(C)(C)CC[C@@H]2O` [Oridonin (Isodonol)], which inhibition at 10 µM is on record?
A: -2.85%

Q: With `O=P(O)(O)C(O)(Cc1cccnc1)P(=O)(O)O` [Risedronate sodium] as the compound, how does the inhibition at 10 µM read?
A: 4.5%

Q: For `COc1cc(O)c2c(c1)C(=O)c1cc(C)cc(O)c1C2=O` [Rheochrysidin (Physcione)], which inhibition at 10 µM is on record?
A: 18.7%

Q: Which inhibition at 10 µM does the source give for `Nc1ccn([C@@H]2CS[C@H](CO)O2)c(=O)n1` [Lamivudine (Epivir)] here?
A: 0.555%

Q: How did the inhibition at 10 µM turn out when `CCCCCCCCCC(=O)N[C@@H](Cc1c[nH]c2ccccc12)C(=O)N[C@H](CC(N)=O)C(=O)N[C@@H](CC(=O)O)C(=O)N[C@@H]1C(=O)NCC(=O)N[C@@H](CCCN)C(=O)N[C@@H](CC(=O)O)C(=O)N[C@H](C)C(=O)N[C@@H](CC(=O)O)C(=O)NCC(=O)N[C@H](CO)C(=O)N[C@@H]([C@H](C)CC(=O)O)C(=O)N[C@@H](CC(=O)c2ccccc2N)C(=O)O[C@@H]1C` [Daptomycin] was run?
A: -3.03%

Q: With `CC(C)(C#N)c1cc(Cn2cncn2)cc(C(C)(C)C#N)c1` [Anastrozole] as the compound, how does the inhibition at 10 µM read?
A: 3.89%

Q: Which inhibition at 10 µM does the source give for `N#CC1(c2ccc(NC(=O)c3cccnc3NCc3ccncc3)cc2)CCCC1` [Apatinib (YN968D1)] here?
A: -0.459%

Q: With `NC(=O)N/N=C/c1ccc([N+](=O)[O-])o1` [Nitrofurazone (Nitrofural)] as the compound, how does the inhibition at 10 µM read?
A: 29.8%

Q: For `NC12CC3CC(CC(C3)C1)C2` [Amantadine hydrochloride (Symmetrel)], which inhibition at 10 µM is on record?
A: 1.41%

Q: How did the inhibition at 10 µM turn out when `CCCCCOC(=O)Nc1nc(=O)n([C@@H]2O[C@H](C)[C@@H](O)[C@H]2O)cc1F` [Capecitabine (Xeloda)] was run?
A: 3.74%

Q: With `Clc1ccccc1C(c1ccccc1)(c1ccccc1)n1ccnc1` [Clotrimazole (Canesten)] as the compound, how does the inhibition at 10 µM read?
A: -1.47%

Q: With `C=CCc1ccc(O)c(-c2ccc(O)c(CC=C)c2)c1` [Honokiol] as the compound, how does the inhibition at 10 µM read?
A: -2.26%

Q: For `O=C(O[C@@H]1Cc2c(O)cc(O)cc2O[C@@H]1c1cc(O)c(O)c(O)c1)c1cc(O)c(O)c(O)c1` [(-)-Epigallocatechin gallate], which inhibition at 10 µM is on record?
A: 4.13%

Q: For `Cc1ccccc1N1C(=O)c2cc(S(N)(=O)=O)c(Cl)cc2NC1C` (stereo not drawn) [Metolazone (Zaroxolyn)], which inhibition at 10 µM is on record?
A: 27.9%

Q: With `O=C(/C=C/C=C/c1ccc2c(c1)OCO2)N1CCCCC1` [Piperine (1-Piperoylpiperidine)] as the compound, how does the inhibition at 10 µM read?
A: -1.51%

Q: How did the inhibition at 10 µM turn out when `N[C@@H](Cc1c[nH]c2ccc(O)cc12)C(=O)O` [5-hydroxytryptophan (5-HTP)] was run?
A: -0.632%

Q: `COC(=O)[C@H]1[C@H]2C[C@@H]3c4[nH]c5cc(OC)ccc5c4CCN3C[C@H]2C[C@@H](OC(=O)c2cc(OC)c(OC)c(OC)c2)[C@@H]1OC` [Reserpine] was tested. Which inhibition at 10 µM did it give?
A: 24%

Q: For `Cc1cn([C@@H]2C[C@@H](O)[C@H](CO)O2)c(=O)[nH]c1=O` [Telbivudine (Sebivo, Tyzeka)], which inhibition at 10 µM is on record?
A: 23.8%

Q: For `CC(C)C[C@H](NC(=O)[C@H](Cc1ccccc1)NC(=O)c1cnccn1)B(O)O` [Bortezomib (Velcade)], which inhibition at 10 µM is on record?
A: -4.79%

Q: For `Cc1nc(-c2ccc(OCC(C)C)c(C#N)c2)sc1C(=O)O` [Febuxostat (Uloric)], which inhibition at 10 µM is on record?
A: -0.186%

Q: With `C[C@H]1C[C@@H]2[C@H]([C@@H](O)C[C@@]3(C)[C@H]2CC[C@]3(O)C(=O)CO)[C@@]2(C)C=CC(=O)C=C12` [Methylprednisolone] as the compound, how does the inhibition at 10 µM read?
A: 7.52%

Q: `CCC(=O)OCC(=O)[C@@]1(OC(=O)CC)[C@@H](C)C[C@H]2[C@@H]3CCC4=CC(=O)C=C[C@]4(C)[C@@]3(F)[C@@H](O)C[C@@]21C` [Betamethasone dipropionate] was tested. Which inhibition at 10 µM did it give?
A: 6.47%

Q: Which inhibition at 10 µM does the source give for `O=c1c(-c2ccc(O)cc2)coc2cc(O)ccc12` [Daidzein] here?
A: -2.08%

Q: Which inhibition at 10 µM does the source give for `NNc1nncc2ccccc12` [Hydralazine hydrochloride] here?
A: -0.625%

Q: With `Nc1nc2[nH]cnc2c(=S)[nH]1` [Thioguanine] as the compound, how does the inhibition at 10 µM read?
A: 13%

Q: With `O=C1c2c(O)cc(O)cc2O[C@H](c2ccc(O)c(O)c2)[C@H]1O` [Taxifolin (Dihydroquercetin)] as the compound, how does the inhibition at 10 µM read?
A: 12.2%

Q: For `CN/C(=C\[N+](=O)[O-])NCCSCc1ccc(CN(C)C)o1` [Ranitidine (Zantac)], which inhibition at 10 µM is on record?
A: 1.37%

Q: Which inhibition at 10 µM does the source give for `O=c1c(-c2ccc(O)cc2)coc2c([C@@H]3O[C@H](CO)[C@@H](O)[C@H](O)[C@H]3O)c(O)ccc12` [Puerarin (Kakonein)] here?
A: -3.03%

Q: For `CC1(C)[C@@H](O)CC[C@]2(C)[C@H]3C(=O)C=C4[C@@H]5C[C@@](C)(C(=O)O)CC[C@]5(C)CC[C@@]4(C)[C@]3(C)CC[C@@H]12` [Enoxolone (Glycyrrhetin)], which inhibition at 10 µM is on record?
A: -0.00685%

Q: Which inhibition at 10 µM does the source give for `NCC(=O)CCC(=O)O` [5-Aminolevulinic acid hydrochloride] here?
A: -1.27%

Q: How did the inhibition at 10 µM turn out when `O=C(O)[C@H]1O[C@@H](Oc2cc3oc(-c4ccccc4)cc(=O)c3c(O)c2O)[C@H](O)[C@@H](O)[C@@H]1O` [Baicalin] was run?
A: -3.47%

Q: For `C[C@@H]1CC[C@@]2(OC1)O[C@H]1C[C@H]3[C@@H]4CC=C5C[C@@H](O[C@@H]6O[C@H](CO)[C@@H](O[C@@H]7O[C@@H](C)[C@H](O)[C@@H](O)[C@H]7O)[C@H](O)[C@H]6O[C@@H]6O[C@@H](C)[C@H](O)[C@@H](O)[C@H]6O)CC[C@]5(C)[C@H]4CC[C@]3(C)[C@H]1[C@@H]2C` [Dioscin (Collettiside III)], which inhibition at 10 µM is on record?
A: 32.2%

Q: With `O=C1CCC[C@@H]2[C@H]3CCCN4CCC[C@@H](CN12)[C@@H]34` [Matrine ((+)-Matrine)] as the compound, how does the inhibition at 10 µM read?
A: -4.08%

Q: How did the inhibition at 10 µM turn out when `C[C@@H](O[C@H]1OCCN(Cc2n[nH]c(=O)[nH]2)[C@H]1c1ccc(F)cc1)c1cc(C(F)(F)F)cc(C(F)(F)F)c1` [Aprepitant (MK-0869)] was run?
A: 17.6%

Q: With `O=c1cc(-c2ccccc2)oc2cc(O)c(O)c(O)c12` [Baicalein] as the compound, how does the inhibition at 10 µM read?
A: -2.71%

Q: `OCCN(CCO)c1nc(N2CCCCC2)c2nc(N(CCO)CCO)nc(N3CCCCC3)c2n1` [Dipyridamole (Persantine)] was tested. Which inhibition at 10 µM did it give?
A: -3.58%

Q: For `Cc1ccc(O)c([C@H](CCN(C(C)C)C(C)C)c2ccccc2)c1` [Tolterodine tartrate (Detrol LA)], which inhibition at 10 µM is on record?
A: -2.31%

Q: For `OC[C@@H](O)[C@@H](O)[C@H](O)[C@H](O)CO` [D-Mannitol (Osmitrol)], which inhibition at 10 µM is on record?
A: 5.76%

Q: Which inhibition at 10 µM does the source give for `CC(=O)OCC(=O)[C@@]12OC(C)(C)O[C@@H]1C[C@H]1[C@@H]3C[C@H](F)C4=CC(=O)C=C[C@]4(C)[C@@]3(F)[C@@H](O)C[C@@]12C` [Fluocinonide (Vanos)] here?
A: -1.57%

Q: For `COc1ccccc1OCC(O)CO` (stereo not drawn) [Guaifenesin (Guaiphenesin)], which inhibition at 10 µM is on record?
A: 13.1%

Q: With `C[C@H](Cn1cnc2c(N)ncnc21)OCP(=O)(O)O` [Tenofovir (Viread)] as the compound, how does the inhibition at 10 µM read?
A: 8.23%

Q: For `N=c1ccn2c(n1)O[C@H]1[C@H](O)[C@@H](CO)O[C@H]12` [Cyclocytidine HCl], which inhibition at 10 µM is on record?
A: -2.19%

Q: How did the inhibition at 10 µM turn out when `CC(C)NCC(O)c1ccc(O)c(O)c1` (stereo not drawn) [Isoprenaline hydrochloride] was run?
A: -0.7%

Q: `NC(CO)C(=O)NNCc1ccc(O)c(O)c1O` (stereo not drawn) [Benserazide] was tested. Which inhibition at 10 µM did it give?
A: 6.78%

Q: For `OC[C@H]1O[C@@H](Oc2cc(O)cc(C=Cc3ccc(O)cc3)c2)[C@H](O)[C@@H](O)[C@@H]1O` [Polydatin (Piceid)], which inhibition at 10 µM is on record?
A: 1.2%

Q: How did the inhibition at 10 µM turn out when `CC1(C)S[C@@H]2[C@H](NC(=O)[C@H](N)c3ccc(O)cc3)C(=O)N2[C@H]1C(=O)O` [Amoxicillin (Amox)] was run?
A: -1.15%

Q: `C[C@H]([C@H](O)CCC(C)(C)O)[C@H]1CC[C@@]2(O)C3=CC(=O)[C@@H]4C[C@@H](O)[C@@H](O)C[C@]4(C)[C@H]3CC[C@]12C` [Ecdysone] was tested. Which inhibition at 10 µM did it give?
A: 0.187%

Q: For `Cc1c(OCC(F)(F)F)ccnc1C[S+]([O-])c1nc2ccccc2[nH]1` (stereo not drawn) [Lansoprazole], which inhibition at 10 µM is on record?
A: -7.28%

Q: With `CCc1cc(C(N)=S)ccn1` [Ethionamide] as the compound, how does the inhibition at 10 µM read?
A: 27.7%

Q: With `OCc1ccccc1O[C@@H]1O[C@H](CO)[C@@H](O)[C@H](O)[C@H]1O` [Salicin (Salicoside, Salicine)] as the compound, how does the inhibition at 10 µM read?
A: -2.7%

Q: For `Nc1ncnc2c1ncn2[C@@H]1O[C@H](CO)[C@@H](O)[C@H]1O` [Adenosine (Adenocard)], which inhibition at 10 µM is on record?
A: 15.3%

Q: How did the inhibition at 10 µM turn out when `O=c1cc(-c2ccc(O)c(O)c2)oc2cc(O)cc(O)c12` [Luteolin] was run?
A: -2.28%

Q: With `COc1ccc(-c2cc(=O)c3c(OC)c(OC)c(OC)c(OC)c3o2)cc1OC` [Nobiletin (Hexamethoxyflavone)] as the compound, how does the inhibition at 10 µM read?
A: -0.471%

Q: With `COc1cc(C(C)=O)ccc1O` [Apocynin (Acetovanillone)] as the compound, how does the inhibition at 10 µM read?
A: -0.991%

Q: `Cc1cc2c(s1)Nc1ccccc1N=C2N1CCN(C)CC1` [Olanzapine (Zyprexa)] was tested. Which inhibition at 10 µM did it give?
A: 12.7%

Q: How did the inhibition at 10 µM turn out when `C[C@]12CCC(=O)C=C1[C@@H]1C[C@@H]1[C@H]1[C@@H]3[C@@H]4C[C@@H]4[C@@]4(CCC(=O)O4)[C@@]3(C)CC[C@@H]12` [Drospirenone] was run?
A: -0.385%

Q: For `O=C(O)C[C@H](O)C[C@H](O)/C=C/c1c(C2CC2)nc2ccccc2c1-c1ccc(F)cc1` [Pitavastatin calcium (Livalo)], which inhibition at 10 µM is on record?
A: 17.7%

Q: With `Nc1cccc2c1CN(C1CCC(=O)NC1=O)C2=O` (stereo not drawn) [Lenalidomide] as the compound, how does the inhibition at 10 µM read?
A: -2.36%

Q: With `NC(=O)N1c2ccccc2C=Cc2ccccc21` [Carbamazepine (Carbatrol)] as the compound, how does the inhibition at 10 µM read?
A: 2.33%

Q: Which inhibition at 10 µM does the source give for `Cc1cnc(C(=O)NCCc2ccc(S(=O)(=O)NC(=O)NC3CCCCC3)cc2)cn1` [Glipizide (Glucotrol)] here?
A: 9.36%

Q: With `CC1Cc2ccccc2N1NC(=O)c1ccc(Cl)c(S(N)(=O)=O)c1` (stereo not drawn) [Indapamide (Lozol)] as the compound, how does the inhibition at 10 µM read?
A: 0.426%

Q: With `C[C@@H](c1ncncc1F)[C@](O)(Cn1cncn1)c1ccc(F)cc1F` [Voriconazole] as the compound, how does the inhibition at 10 µM read?
A: 17.5%

Q: `C[C@]12CCC(=O)C=C1CC[C@@H]1[C@@H]2[C@@H](O)C[C@@]2(C)[C@H]1CC[C@]2(O)C(=O)CO` [Hydrocortisone (Cortisol)] was tested. Which inhibition at 10 µM did it give?
A: 4.6%

Q: How did the inhibition at 10 µM turn out when `O=c1[nH]cnc2[nH]ncc12` [Allopurinol Sodium (Aloprim)] was run?
A: 21.4%

Q: `Cc1cc(NS(=O)(=O)c2ccc(N)cc2)no1` [Sulfamethoxazole] was tested. Which inhibition at 10 µM did it give?
A: -1.59%
